Test results reported in US6120997A, “Nucleic acid binders having an hydroxyamine motif” (The Scripps Research Institute, priority 1998, dated 2000).
pKd: −log10 of the molar value.

What was measured:
AS-U1406A = assay: SPR binding of aminoglycosides to AS-U1406A; settings: Example 5, HBS-buffer
Excerpt: To understand the specificity of ribosomal RNA recognition by the various aminoglycosides, we decided to investigate their binding to AS-wt and compare the results to a series of control mutants which have likewise been characterized by footprinting (FIG. 44). These include the negative controls AS-U1495A, AS-DA1492 and AS-res. […] In AS-U1495A a critical hydrogen bond acceptor which interacts with N1 of the 2-deoxystreptamine ring has been removed. The mutation DA1492 destroys the bulged pocket in which paromomycin ring II (the glucose ring) is positioned. Finally, in the AS-res mutant the G1491:C1409 base pair which creates the floor of the binding pocket is disrupted by replacing it with a C1491:U1409 mismatch. Breaking up this critical base pair in the E. coli 16S ribosomal RNA causes resistance to a broad range of aminoglycosides. In contrast to these negative controls, the mutant hairpin AS-U1406A still contains all necessary elements for specific aminoglycoside recognition and binds paromomycin with wild type specificity.
(§1) For the quantitative measurement of aminoglycoside binding to these sequences, we utilized our recently developed SPR-based assay. Biotinylated derivatives of all sequences were prepared by in vitro transcription in the presence of guanosine 5'-monophosphorothioate followed by alkylation with a biotin iodoacetamide derivative. The RNA conjugates were then immobilized onto streptavidin coated SPR-sensorchips for analysis.
(§2) In the same manner as illustrated for paromomycin, a panel of aminoglycosides was screened and the results are compiled in the table of FIGS. 46 and 47. In addition to the naturally occuring aminoglycoside antibiotics, some of the compounds in FIG. 46 are synthetically derived, unnatural aminoglycosides. The number of independent determinations for each dissociation constant ranged from 1-3. […] All data were recorded under near physiological salt conditions (HBS-buffer: 150 mM NaCl, 10 mM HEPES, pH7.4, 3.4 mM EDTA) unless noted otherwise. Data points were taken at concentrations ranging from […]. Below this concentration range, surface transport limitations prevent the attainment of equilibrium.
(§3) General Procedures for SPR Binding Studies done in Example 5. Samples were prepared by serial dilutions from stock solutions in RNase free microfuge tubes (Ambion) and were centrifuged at 14000 rpm for degassing. Unless otherwise noted, all binding studies were carried out using HBS buffer (Pharmacia Biosensor AB) which was used as obtained. All procedures for binding studies were automated as methods using repetitive cycles of sample injection and regeneration. Typically, buffer was injected in the first two cycles to establish a stable baseline value. Samples were injected at a flowrate of […] using either the KINJECT command. All aminoglycoside samples were injected from autoclaved 7 mm plastic vials that were capped with pierceable plastic crimp caps. To minimize carry over, samples were injected in order of increasing concentration. The running buffer was identical to the injection buffer. Expected values for the equilibrium response of one equivalent of analyte were calculated from the relative molecular weight of the analyte and the immobilized RNA ligand in each flowcells and adjusted with a correction factor of 0.76 which arises from the different molar refractive indices of RNA and the analyte. Binding constants were calculated by fitting the recorded binding isotherm (equivalents bound vs, concentration) to a model with n independent binding constants using the fitting program provided in the program Kaleidagraph (Macintosh).

AS-wt = assay: SPR binding of aminoglycosides to decoding region A-site model AS-wt; parameters: species or system E. coli; settings: for specificity for AS-wt over negative controls (in words): Example 5, HBS-buffer
Protocol: The RNA binding properties of 100-800 were analyzed using a surface plasmon resonance based assay that was recently developed in these laboratories. This assay allows the determination of both affinity and specificity of small molecule-RNA interactions. For the analysis, the compounds were injected over a matrix containing RNA that was immobilized through a biotin tag and the equilibrium binding values were recorded at various concentrations.
Non-linear curve fitting was then used to determine the values of the dissociation constants (KD). The specificity of binding, i.e. the ability to discriminate between different RNA sequences was evaluated by comparing the binding to the target sequence (AS-wt) and the negative control (AS-U1495A). The ratio of KD(AS-U1495A) to KD(AS-wt) was taken to be a representation of the specificity of the binding event.
as §1, §2
Plasmon resonance and antimicrobial testing for Example 4. Synthesis of the biotinylated RNA and surface plasmon resonance detected binding experiments were performed as described vida supra. Solution conditions: 150 mM NaCl, 10 mM HEPES (pH 7.4), 3.4 mM EDTA. KD determination from the binding curves.
The fitting routine of the program kaleidagraph was used for all calculations. The starting values for a and b were set to 1 and 0 respectively. The number of KD values used in the fitting was adjusted depending on the observed range of equivalents bound but generally varied from 3 to 4.
as §3, with “Binding constants were calculated by fitting the recorded binding isotherm (equivalents bound vs, concentration) to a model with n independent binding constants using the fitting program provided in the program Kaleidagraph (Macintosh).” left out

Neo16-bd = assay: SPR binding of aminoglycosides to Neo16-bd aptamer
Protocol: Conditions: 10 mM HEPES (pH 7.4), 0.1 mM EDTA and NaCl as indicated.
The binding of aminoglycosides to RNA is likely to involve substantial ionic contributions and therefore should be strongly influenced by competing buffer ions. […] We studied the salt dependence of neomycin B binding to RBE3, RBE3-neg and Neo16-bd (FIG. 14) by varying the concentration of NaCl included in the injection buffer (10 mM HEPES, pH 7.4, 0.1 mM EDTA). […] This neomycin binding motif was obtained by in vitro selection under conditions of high ionic strength.
To further improve our understanding of specific aminoglycoside recognition, we have also included an artificial aminoglycoside receptor that was evolved in vitro to recognize an aminoglycoside. A number of RNA aptamers for small molecules have been reported in recent years. Among them are aptamers that recognize the aminoglycosides tobramycin, lividomycin and kanamycin.
For comparison, the corresponding values for AS-wt are also included.
General Procedures for SPR Binding Studies done in Example 5. Samples were prepared by serial dilutions from stock solutions in RNase free microfuge tubes (Ambion) and were centrifuged at 14000 rpm for degassing. Unless otherwise noted, all binding studies were carried out using HBS buffer (Pharmacia Biosensor AB) which was used as obtained. All procedures for binding studies were automated as methods using repetitive cycles of sample injection and regeneration. Typically, buffer was injected in the first two cycles to establish a stable baseline value. Samples were injected at a flowrate of […] using either the KINJECT command. All aminoglycoside samples were injected from autoclaved 7 mm plastic vials that were capped with pierceable plastic crimp caps. To minimize carry over, samples were injected in order of increasing concentration. The running buffer was identical to the injection buffer.

Molecule	binding to AS-U1406A mutant relative to AS-wt (in words) (AS-U1406A)	specificity for AS-wt over negative controls (in words) (AS-wt)	also measured
Butirosin	significantly enhanced	only moderate specificity for AS-wt	–
CN[C@H]1C[C@@H](N)[C@H](O)[C@@H](O[C@@H]2O[C@H](CO)[C@H](O)[C@@H]3OC4(O[C@H]23)O[C@H]([C@@H](N)CO)[C@H](O)[C@H](O)[C@H]4O)[C@@H]1O (some centres unmarked) [Hygromycin B]	–	none	–
NC[C@H]1O[C@H](O[C@H]2[C@H](O[C@@H]3O[C@H](CO)[C@@H](O[C@H]4O[C@@H](CO)[C@@H](O)[C@H](O)[C@H]4O)[C@H]3O)[C@@H](O)[C@H](N)C[C@@H]2N)[C@H](N)[C@@H](O)[C@@H]1O [Compound 700, 2"',6"'-desamino-2"'-6"'-hydroxy neomycin B]	–	–	RNA binding, affinity or specificity for AS-wt (in words) (AS-wt; Example 4): virtually the same RNA binding profile
NC[C@@H]1O[C@H](O[C@H]2[C@@H](O)[C@H](O[C@@H]3[C@@H](O)[C@H](N)C[C@H](N)[C@H]3O[C@H]3O[C@H](CN)[C@@H](O)[C@H](O)[C@H]3N)O[C@@H]2CO)[C@H](O)[C@@H](O)[C@@H]1O [Compound 800, 2"'-desamino-2"'-hydroxy neomycin B]	–	–	pKd (Neo16-bd; HBS-buffer, read-out: Kd, Neo16bd): > 8.00; affinity improvement for AS-wt in relation to 700 (AS-wt): 40 fold
NC[C@H]1O[C@H](O[C@H]2[C@H](O)[C@@H](O[C@H]3O[C@H](CO)[C@@H](O)[C@H](N)[C@H]3O)[C@H](N)C[C@@H]2N)[C@H](N)[C@@H](O)[C@@H]1O [Kanamycin B]	not increased in the U1406A mutant relative to AS-wt but rather decreased	only very moderate specificity for AS-wt	–
N[C@H]1[C@@H](O[C@H]2[C@H](O)[C@@H](O)[C@H](N)C[C@@H]2N)O[C@H](CO)[C@@H](O)[C@@H]1O [Paromamine]	–	substantial decrease in binding to AS-wt and a loss of most specificity	–
NC[C@H]1O[C@H](O[C@H]2[C@H](O)[C@@H](O[C@H]3O[C@H](CO)[C@@H](O)[C@H](N)[C@H]3O)[C@H](N)C[C@@H]2N)[C@H](N)C[C@@H]1O [Tobramycin]	not increased in the U1406A mutant relative to AS-wt but rather decreased	only very moderate specificity for AS-wt	–
Gentamycin	not increased in the U1406A mutant relative to AS-wt but rather decreased	only very moderate specificity for AS-wt	–
NCC1OC(OC2C(N)CC(N)C(OC3OC(CO)C(O)C(N)C3O)C2O)C(O)C(O)C1O (centres unmarked) [Kanamycin A]	not increased in the U1406A mutant relative to AS-wt but rather decreased	only very moderate specificity for AS-wt	–
NC[C@H]1O[C@H](O[C@H]2[C@H](O[C@@H]3O[C@H](CO)[C@@H](O)[C@H]3O)[C@@H](O)[C@H](N)C[C@@H]2N)[C@H](N)[C@@H](O)[C@@H]1O [Ribostamycin]	only weakly enhanced	low	binding to Neo16bd (in words) (Neo16-bd): bound more tightly to the aptamer than paromomycin; lower affinity for AS-wt relative to neamine (AS-wt): 3 fold
CN[C@@H]1[C@@H](O[C@H]2O[C@H](CO)[C@@H](N)[C@H](O)[C@H]2O)OC2C[C@@H](N)[C@@H](O[C@H]3[C@H](O)[C@@H](O)[C@H](N)C[C@@H]3N)OC2[C@@H]1O (some centres unmarked) [Apramycin]	–	only marginal if any specificity for AS-wt	–
